Measurements: paper PMC3912631, “Bench to Bed Evidences for Pharmacokinetic and Pharmacodynamic Interactions Involving Oseltamivir and Chinese Medicine” (Evidence-based Complementary and Alternative Medicine : eCAM, 2014)
Read-outs that look alike come from different tables or passages of the source.

What was measured:
[1] = cited from earlier work
[2] = Rat pharmacokinetics of OA and OC in plasma and urine after oral OA alone or with CMF1; assay type: in vivo, Sprague-Dawley rats; conditions: for Tmax / Cmax / CL renal / half-life: male, Sprague-Dawley, in vivo, po, 30 mg/kg; for Tmax / Cmax / CL renal / half-life / AUC0–8 h / AUC0–inf / Renal recovery: oral, bid for 5 days; for Tmax: mean ± SD, read-out: T max (converted); for Cmax: read-out: C max; for CL renal: read-out: CL renal; for half-life: read-out: t 1/2, λz; for Renal recovery: urine over 8 h
Method: The study was approved by the Animal Ethics Committee of The Chinese University of Hong Kong. Male Sprague-Dawley rats (230–250 g) were utilized and supplied by the Laboratory Animal Service Center at The Chinese University of Hong Kong. The rats were housed under standard conditions of temperature, humidity, and light and randomly divided into six groups with 10–12 rats in each group. […] The dose of 1.95 g/kg CMF1 is calculated based on the human dose recommended by the Chinese physicians and a doubled dose of CMF1 at […] is also used in the current study due to the potential large dosing range for Chinese medicine adopted in the practice. […]
For dosing, OA (4 mg/mL) was freshly prepared by dissolving it in water and orally given to rats by gavage, bid (twice daily) for 4 days (9:00am and 6:00pm for each day), and CMF1 was also freshly suspended in water and then orally given to rats 2 h later of OA dosing (11:00 am and 8:00 pm for each day).
For Groups of 1 to 3, a surgery for jugular vein cannulation was performed 1 h after CMF1 second dosing on day 4. A polyethylene catheter (0.50 mm ID, 1.00 mm OD, Portex Limited, Hythe, Kent, England) was cannulated into the right jugular vein under anesthesia. After surgery, the rat was placed in separated metabolic cage and allowed to recover and fasted overnight with free access to water. In the morning of day 5, blood samples (0.2 mL each) of the rats in the Groups 1–3 were collected via the catheter at 0, 15, 30, 60, 90, 120, 180, 240, 360, and 480 min after dosing of OA. After which, 0.2 mL of normal saline containing 20 units/mL of heparin was then injected into the catheter to flush the catheter. The collected blood samples were immediately placed in heparinized tubes containing dichlorvos (5 μL of 8 mg/mL dichlorvos in normal saline) for inhibition of carboxylesterase, followed by centrifugation to obtain the plasma and stored at −80°C. Urine samples were collected over 8 h postdose and combined with water used for rinsing the metabolic cage, further diluted to 200 mL, and then stored at −80°C until assay.
The rat/human plasma and urine samples were treated and analyzed by an LC/MS/MS system as previously described. Briefly, 200 μL plasma/urine samples was mixed with cephalexin hydrate (internal standard, IS) working solution (final 2 μg/mL) and acidified with 1 mL of 10% perchloric acid in water (if necessary, dilution with blank human urine was required for urine samples). After mixing and centrifugation, the supernatant was loaded in prewashed Oasis MCX cartridge (1 cc, 30 mg, Waters) and the cartridge was rinsed subsequently with 1% formic acid, water, and methanol followed by vacuum dried for 20 min. The analytes were then eluted with 1 mL of 1% ammonia in methanol. The eluting solvent was dried by a vacuum concentrator and the residue was reconstituted with 200 μL of 0.1% formic acid : methanol (1 : 1 v/v) prior to HPLC/MS/MS analysis using an ABI 2000 Q-Trap triple quadrupole mass spectrometer (Applied Biosystems) coupled with PE-200 series micropumps and autosampler (Perkin-Elmer). The chromatographic separation was achieved by using a Nova-Pak CN HP column (75 × 3.9 mm i.d., 4 μm particle size, Waters) and the HPLC solvent system consisted of methanol (A) and 0.1% formic acid in water (B), with 50% A (for plasma samples) or 60% A (for urine samples) at 1 mL/min. The temperatures of autosampler and the analytical column were set at 4°C and ambient, respectively, and the sample injection volume was 20 μL. Prior to the mass spectrometric system, 60% of the LC eluent was split off and only 40% of the eluent was introduced into the ESI source.
The plasma/urine OA and OC concentrations versus time profiles were analyzed using WinNonlin software standard edition version 2.1 (Pharsight Corporation). […] In human study, trough concentration (C trough) was defined as the minimum concentration obtained and was obtained at 12 h post-dose. […]

[3] = test system: influenza virus strains; set-up: method as in PMID 20215135; conditions: read-out: inhibitory concentrations (IC50) against influenza virus strains; cited from earlier work
[4] = Group 2: OA 30 mg/kg + CMF1 at 1.95 mg/kg
[5] = Group 3: OA 30 mg/kg + CMF1 at 3.90 mg/kg

## CCC(CC)O[C@@H]1C=C(C(=O)O)C[C@H](N)[C@H]1NC(C)=O [OC, oseltamivir carboxylate]
[1]
  effect of food on bioavailability: no significant effect
[1]; following 50 mg doses
  maximum plasma oseltamivir carboxylate concentration: about 230 μg/L
[1]; oral OA
  absolute oral bioavailability of OC from orally administered OA: 80%
  half-life: 6 to 10 h
[2]; dose-dependent
  decrease of C max, urinary recovery and AUC of OC and OC/OA AUC ratio in OA + CMF1 groups vs OA alone: 26%-27%
[2]; Group 1: OA alone 30 mg/kg
  Tmax: 1.75 h
  Cmax: 1650 ± 400 ng/mL
  CL renal: 6.33 ± 1.27 mL/min
  half-life: 2.53 ± 0.418 h
  AUC0–8 h: 418.81 ± 90.86 μg∗min/mL
  AUC0–inf: 485.45 ± 113.03 μg∗min/mL
  Renal recovery: 35.26 ± 5.40 % of dose
[2]; [4]
  Tmax: 1.77 h
  Cmax: 1360 ± 280 ng/mL
  CL renal: 6.27 ± 1.76 mL/min
  half-life: 2.44 ± 0.318 h
  AUC0–8 h: 344.13 ± 91.46 μg∗min/mL
  AUC0–inf: 395.67 ± 109.41 μg∗min/mL
  Renal recovery: 29.73 ± 7.33 % of dose
[2]; [5]
  Tmax: 2 h
  Cmax: 1190 ± 230 ng/mL
  CL renal: 6.34 ± 0.69 mL/min
  half-life: 2.61 ± 0.28 h
  AUC0–8 h: 304.84 ± 40.32 μg∗min/mL
  AUC0–inf: 359.21 ± 41.30 μg∗min/mL
  Renal recovery: 25.94 ± 3.09 % of dose
[3]
  IC50: 0.01 to 69.2 nM
